Source: patent publication US6613791B1, “N-substituted azaheterocyclic carboxylic acids and their use” (Novo Nordisk A/S, priority 1994, dated 2003)

How the values were obtained:
[1] = system: formalin induced pain response; assay: Formalin induced pain or paw oedema in mice; type: in vivo; settings: 0.1 mg/kg; NMRI female mice, 20 μl 1% formalin into left hind paw
Protocol: Values for in vivo inhibition of formalin induced pain or oedema for the compounds of the present invention were assessed in mice essentially by the method of Wheeler-Aceto and Cowan (Agents Action 1991, 34, 265-269).
About 20 g NMRI female mice were injected 20 μl 1% formalin into the left hind paw. The animals were then placed on a heated (31° C.) table, and the pain response was scored. After 1 h they were killed and bled. Left and right hind paws were removed and the weight difference between the paws was used as indication of the oedema response of the formalin injected paw.

Row | Compound | melting point | % Pain inhibition (inhibition of formalin induced pain response) [1]
1 | Cc1ccc2c(c1)C(=CCCN1CCC(C(=O)O)CC1)c1ccccc1CC2.Cl | > 250 °C | 
2 | Cl.OCC1CCCN(CCCN2c3ccccc3CCc3ccccc32)C1 (stereo not shown) | 145 to 147 °C | 
3 | O=C([O-])C1CN(CCCN2c3ccccc3CCc3ccccc32)CCN1.[K+] (stereo not shown) (hydrate or solvate) | 151 to 155 °C | 
4 | Cl.O=C(O)C1CN(CCCN2c3ccccc3CCc3ccccc32)CCO1 (stereo not shown) (hydrate or solvate) [Example 8, 4-(3-(10,11-Dihydro-5H-dibenz[b,f]azepin-5-yl)-1-propyl)-2-morpholinecarboxylic Acid Hydrochloride] | 196 to 199 °C | 
5 | Cl.O=C(O)C1Cc2ccccc2CN1CCCN1c2ccccc2CCc2ccccc21 (stereo not shown) (hydrate or solvate) [Example 9, 2-(3-(10,11-Dihydro-5H-dibenz[b,f]azepin-5-yl)-1-propyl)-1,2,3,4-tetrahydro-3-isoquinolinecarboxylic Acid Hydrochloride] | 205 to 208 °C | 
6 | CN(C)c1ccc2c(c1)N(CCCN1CCC(C(=O)O)CC1)c1ccccc1CC2 (hydrate or solvate) [Example 25, 1-(3-(3-Dimethylamino-10,11-dihydro-5H-dibenz[b,f]azepin-5-yl)-1-propyl)-4-piperidinecarboxylic Acid] | 198 to 202 °C | 
7 | Cl.OC1(c2ccc(Cl)cc2)CCN(CCCN2c3ccccc3CCc3ccccc32)CC1 [Example 2, 4-(4-Chlorophenyl)-1-(3-(10,11-dihydro-5H-dibenz[b,f]azepin-5-yl)-1-propyl)piperidin-4-ol Hydrochloride] |  | 13%
8 | Cl.NC(=O)C1CCCN(CCCN2c3ccccc3CCc3ccccc32)C1 (stereo not shown) [Example 4, 1-(3-(10,11-Dihydro-5H-dibenz[b,f]azepin-5-yl)-1-propyl)-3-piperidinecarboxamide Hydrochloride] |  | 47%
9 | Cl.O=C(O)C1CCCCN1CCCN1c2ccccc2CCc2ccccc21 (stereo not shown) [Example 5, 1-(3-(10,11-Dihydro-5H-dibenz[b,f]azepin-5-yl)-1-propyl)-2-piperidinecarboxylic Acid Hydrochloride] |  | 36%
10 | Cl.O=C(O)C1CN(CCCN2c3ccccc3CCc3ccccc32)CCO1 (stereo not shown) [Example 8, 4-(3-(10,11-Dihydro-5H-dibenz[b,f]azepin-5-yl)-1-propyl)-2-morpholinecarboxylic Acid Hydrochloride] |  | 34%
11 | Cl.O=C(O)C1Cc2ccccc2CN1CCCN1c2ccccc2CCc2ccccc21 (stereo not shown) [Example 9, 2-(3-(10,11-Dihydro-5H-dibenz[b,f]azepin-5-yl)-1-propyl)-1,2,3,4-tetrahydro-3-isoquinolinecarboxylic Acid Hydrochloride] |  | 29%

Now from value to compound, other results behind:

Row | melting point | Compound | % Pain inhibition (inhibition of formalin induced pain response) [1]
12 | 195 to 197 °C | Cl.O=C(O)C1CCN(CCCN2c3ccccc3CCc3ccccc32)CC1 | 
13 | 185 to 188 °C | Cl.O=C(O)CC1CCN(CCCN2c3ccccc3CCc3ccccc32)CC1 | 
14 | 224 to 226 °C | Cl.O=C(O)C1CCN(CCC=C2c3ccccc3CCc3ccccc32)CC1 | 
15 | > 250 °C | Cl.NC(=O)[C@@H]1CCCN(CCC=C2c3ccccc3CCc3ccccc32)C1 | 
16 | 196 to 198 °C | Cl.O=C(O)C1CCN(CCCN2c3ccccc3Oc3ccccc32)CC1 | 
17 | 233 to 235 °C | Cl.O=C(O)CC1CCCN(CCCN2c3ccccc3CCc3ccccc32)C1 (stereo not shown) | 
18 | 237 to 239 °C | Cl.O=C(O)C1CCN(CCCN2c3cc(Cl)ccc3CCc3ccc(Cl)cc32)CC1 | 
19 | 169 to 170 °C | CC1C(C(=O)O)CCCN1CCCN1c2ccccc2CCc2ccccc21.Cl (stereo not shown) (hydrate or solvate) | 
20 | 165 to 166 °C | Cl.O=C(O)C1CCN(CCCN2c3ccc(Br)cc3CCc3cc(Br)ccc32)CC1 (hydrate or solvate) | 
21 | 122 to 126 °C | Cl.O=C(O)C1CCCCN1CCCN1c2ccccc2CCc2ccccc21 (stereo not shown) (hydrate or solvate) [Example 5, 1-(3-(10,11-Dihydro-5H-dibenz[b,f]azepin-5-yl)-1-propyl)-2-piperidinecarboxylic Acid Hydrochloride] | 
22 | 207 to 209 °C | Cc1ccc2c(c1)N(CCCN1CCC(C(=O)O)CC1)c1cc(C)ccc1CC2 (hydrate or solvate) [Example 24, 1-(3-(3,7-Dimethyl-10,11-dihydro-5H-dibenz[b,f]azepin-5-yl)-1-propyl)-4-piperidinecarboxylic Acid] | 
